Among the data in patent US11878965B2, “Inhibitors of peptidylarginine deiminases” (Gilead Sciences, Inc., priority 2020, dated 2024) are IC50 values, retold here.

Sequence of human PAD4 (Q9UM07 2-663): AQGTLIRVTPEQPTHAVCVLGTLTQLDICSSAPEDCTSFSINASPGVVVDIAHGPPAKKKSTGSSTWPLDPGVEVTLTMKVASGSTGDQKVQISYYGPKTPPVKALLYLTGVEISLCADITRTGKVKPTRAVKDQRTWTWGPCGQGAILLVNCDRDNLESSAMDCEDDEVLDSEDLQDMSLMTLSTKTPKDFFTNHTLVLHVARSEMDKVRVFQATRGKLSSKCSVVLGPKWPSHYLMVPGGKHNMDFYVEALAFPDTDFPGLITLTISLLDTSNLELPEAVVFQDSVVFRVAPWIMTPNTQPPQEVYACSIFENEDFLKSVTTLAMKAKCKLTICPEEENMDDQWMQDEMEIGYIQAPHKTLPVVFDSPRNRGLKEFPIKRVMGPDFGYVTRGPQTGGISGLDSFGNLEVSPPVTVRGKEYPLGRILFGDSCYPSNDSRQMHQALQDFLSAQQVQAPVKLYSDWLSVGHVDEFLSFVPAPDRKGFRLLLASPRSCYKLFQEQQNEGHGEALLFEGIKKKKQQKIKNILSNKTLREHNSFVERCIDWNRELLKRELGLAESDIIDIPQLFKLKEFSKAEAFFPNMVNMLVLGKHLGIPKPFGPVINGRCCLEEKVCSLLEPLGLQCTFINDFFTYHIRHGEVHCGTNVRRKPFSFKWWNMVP

The first assay has as its target human PAD4 (Homo sapiens (Human), UniProt Q9UM07). Briefly: In Vitro PAD4 BAEE Biochemical Assay. Conditions: human PAD4, BAEE substrate; 5 nM PAD4, 2 mM calcium chloride, 3 mM BAEE; geometric mean of multiple experiments. In outline:
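Deimination of BAEE substrate (3 mM) measured as ammonia via o-phthalaldehyde–DTT isoindole fluorescence, 405/535 nm. Tag-free bacterially expressed human PAD4 at 5 nM with 2 mM calcium chloride, pH 7.6 MOPS buffer, 30 min compound preincubation then 2 h reaction, both at 25 °C.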
In general, IC50 refers to the concentration that inhibits the measured activity by half. Take `COc1cc(C(=O)N2C[C@H](N)CCN2C)cc2nc(-c3cc4ccc([C@@H](C)NC(=O)C5(C)CC5)nc4n3CC3CC3)n(C)c12` [Example 200, N-((R)-1-(2-(5-((R)-5-amino-2-methylhexahydropyridazine-1-carbonyl)-7-methoxy-1-methyl-1H-benzo[d]imidazol-2-yl)-1-(cyclopropylmethyl)-1H-pyrrolo[2,3-b]pyridin-6-yl)ethyl)-1-methylcyclopropane-1-carboxamide]: the IC50 stood at 64.2 nM.

Consider `COc1cc(C(=O)N2[C@H]3CC[C@@H]2[C@H](N)C3)cc2nc(-c3cc4ccc([C@@H](C)NC(=O)c5c(F)cccc5F)cc4n3CC3CC3)n(C3CC3)c12` [Example 148, N-((R)-1-(2-(5-((1R,2R,4S)-2-amino-7-azabicyclo[2.2.1]heptane-7-carbonyl)-1-cyclopropyl-7-methoxy-1H-benzo[d]imidazol-2-yl)-1-(cyclopropylmethyl)-1H-indol-6-yl)ethyl)-2,6-difluorobenzamide], for which the IC50 is 123 nM.

For the compound `COc1cc(C(=O)N2CCC[C@@H](N)C2)cc2nc(-c3cc4ccc(N(Cc5ccccc5)S(C)(=O)=O)nc4n3CC3CC3)n(C)c12` [Example 11, (R)-N-(2-(5-(3-aminopiperidine-1-carbonyl)-7-methoxy-1-methyl-1H-benzo[d]imidazol-2-yl)-1-(cyclopropylmethyl)-1H-pyrrolo [2,3-b]pyridin-6-yl)-N-benzylmethanesulfonamide], the IC50 was 192 nM.

In the case of `COc1cc(C(=O)N2C[C@H](N)CCN2C)cc2nc(-c3cc4ccc([C@@H](C)NC(=O)C(C)(C)c5ccccc5)nc4n3CC3CC3)n(C)c12` [Example 159, N-((R)-1-(2-(5-((R)-5-amino-2-methylhexahydropyridazine-1-carbonyl)-7-methoxy-1-methyl-1H-benzo[d]imidazol-2-yl)-1-(cyclopropylmethyl)-1H-pyrrolo[2,3-b]pyridin-6-yl)ethyl)-2-methyl-2-phenylpropanamide], the IC50 was 229 nM.

With `COc1cc(C(=O)N2C[C@H](N)CC[C@@H]2C)cc2nc(-c3cc4ccc(-c5cccnc5N5CCNCC5)nc4n3CC3CC3)n(C)c12` [Example 264, ((2S,5R)-5-amino-2-methylpiperidin-1-yl)(2-(1-(cyclopropylmethyl)-6-(2-(piperazin-1-yl)pyridin-3-yl)-1H-pyrrolo[2,3-b]pyridin-2-yl)-7-methoxy-1-methyl-1H-benzo[d]imidazol-5-yl)methanone], the IC50 is 1870 nM.

Consider `COc1cc(C(=O)N2CCC[C@@H](N)C2)cc2nc(-c3cc4ccc(N(C(C)C)S(C)(=O)=O)nc4n3CC3CC3)n(C)c12` [Example 6, (R)-N-(2-(5-(3-aminopiperidine-1-carbonyl)-7-methoxy-1-methyl-1H-benzo[d]imidazol-2-yl)-1-(cyclopropylmethyl)-1H-pyrrolo [2,3-b]pyridin-6-yl)-N-isopropylmethanesulfonamide], for which the IC50 amounted to 59.5 nM.

Take `COc1cc(C(=O)N2C[C@H](N)CC[C@@H]2C)cc2nc(-c3cc4ccc(-c5cccc6c5NC(=O)C6)nc4n3CC3CC3)n(C)c12` [Example 259, 7-(2-(5-((2S,5R)-5-amino-2-methylpiperidine-1-carbonyl)-7-methoxy-1-methyl-1H-benzo[d]imidazol-2-yl)-1-(cyclopropylmethyl)-1H-pyrrolo[2,3-b]pyridin-6-yl)indolin-2-one]: the IC50 came to 1830 nM.

Turning to `C#CC(=O)N[C@@H]1CNC[C@H]1NC(=O)c1cc(OC)c2c(c1)nc(-c1cc3ccc(N(C(F)F)S(C)(=O)=O)nc3n1CC1CC1)n2C` [Example 81, 2-(1-(cyclopropylmethyl)-6-((N-(difluoromethyl)methyl)sulfonamido)-1H-pyrrolo[2,3-b]pyridin-2-yl)-7-methoxy-1-methyl-N-((3R,4R)-4-propiolamidopyrrolidin-3-yl)-1H-benzo[d]imidazole-5-carboxamide], the IC50 is 4630 nM.

For `COc1cc(C(=O)N2C[C@H](N)CCN2C)cc2nc(-c3cc4ccc([C@@H](C)NC(=O)C5(c6ccc(C(F)(F)F)cc6)CC5)nc4n3CC3CC3)n(C)c12` [Example 163, N-((R)-1-(2-(5-((R)-5-amino-2-methylhexahydropyridazine-1-carbonyl)-7-methoxy-1-methyl-1H-benzo[d]imidazol-2-yl)-1-(cyclopropylmethyl)-1H-pyrrolo[2,3-b]pyridin-6-yl)ethyl)-1-(4-(trifluoromethyl)phenyl)cyclopropane-1-carboxamide], the IC50 turned out to be 4050 nM.

For the compound `COc1cc(C(=O)N2CCC[C@@H](N)C2)cc2nc(-c3cc4ccc(N5[C@@H](C)CCCS5(=O)=O)nc4n3CC3CC3)n(C3CC3)c12` [Example 101, ((R)-3-aminopiperidin-1-yl)(1-cyclopropyl-2-(1-(cyclopropylmethyl)-6-((S)-3-methyl-1,1-dioxido-1,2-thiazinan-2-yl)-1H-pyrrolo[2,3-b]pyridin-2-yl)-7-methoxy-1H-benzo[d]imidazol-5-yl)methanone], the half-maximal inhibitory concentration (IC50) came to 43.4 nM.

For `COc1cc(C(=O)N2CCC[C@@H](N)C2)cc2nc(-c3cc4ccc(N(CC5CCC5)S(C)(=O)=O)nc4n3CC3CC3)n(C)c12` [Example 21, (R)-N-(2-(5-(3-aminopiperidine-1-carbonyl)-7-methoxy-1-methyl-1H-benzo[d]imidazol-2-yl)-1-(cyclopropylmethyl)-1H-pyrrolo[2,3-b]pyridin-6-yl)-N-(cyclobutylmethyl) methanesulfonamide], the IC50 stood at 50000 nM.

Consider `COc1cc(C(=O)N2[C@@H]3CC[C@@H](N)[C@H]2CC3)cc2nc(-c3cc4ccc(N(C(F)F)S(C)(=O)=O)nc4n3CC3CC3)n(C3CC3)c12` [Example 50, N-(2-(5-((1R,2R,5R)-2-amino-8-azabicyclo[3.2.1]octane-8-carbonyl)-1-cyclopropyl-7-methoxy-1H-benzo[d]imidazol-2-yl)-1-(cyclopropylmethyl)-1H-pyrrolo [2,3-b]pyridin-6-yl)-N-(difluoromethyl) methanesulfonamide], for which the IC50 stood at 145 nM.

Regarding `COc1cc(C(=O)N2[C@H]3CC[C@@H]2[C@H](N)C3)cc2nc(-c3cc4ccc([C@@H](C)NC(=O)C56CC(F)(C5)C6)nc4n3CC3CC3)n(C)c12` [Example 121, N-((R)-1-(2-(5-((1R,2R,4S)-2-amino-7-azabicyclo[2.2.1]heptane-7-carbonyl)-7-methoxy-1-methyl-1H-benzo[d]imidazol-2-yl)-1-(cyclopropylmethyl)-1H-pyrrolo[2,3-b]pyridin-6-yl)ethyl)-3-fluorobicyclo[1.1.1]pentane-1-carboxamide], the IC50 was 46.3 nM.

Still in this assay, the particulars now being: recombinant PAD4 5 nM, 2 mM calcium chloride, 3 mM BAEE substrate; geometric mean of multiple experiments.
As for `COc1cc(C(=O)N2C[C@H](N)[C@@H]3CC[C@H]2C3)cc2nc(-c3cc4ccc([C@@H](C)NC(=O)C56CC(F)(C5)C6)nc4n3CC3(F)CC3)n(C)c12` [Example 291, N-((R)-1-(2-(5-((1S,4R,5R)-4-amino-2-azabicyclo[3.2.1]octane-2-carbonyl)-7-methoxy-1-methyl-1H-benzo[d]imidazol-2-yl)-1-((1-fluorocyclopropyl)methyl)-1H-pyrrolo[2,3-b]pyridin-6-yl)ethyl)-3-fluorobicyclo[1.1.1] pentane-1-carboxamide], the IC50 was determined as 91.9 nM.
